# According to paper PMC2774819 (Chemistry & biology, 2008):
# Like-named read-outs stand apart in the source and are kept apart here.
# T1: MycG (Micromonospora griseorubida, UniProt Q59523)
# T1 sequence (Q59523 1-397): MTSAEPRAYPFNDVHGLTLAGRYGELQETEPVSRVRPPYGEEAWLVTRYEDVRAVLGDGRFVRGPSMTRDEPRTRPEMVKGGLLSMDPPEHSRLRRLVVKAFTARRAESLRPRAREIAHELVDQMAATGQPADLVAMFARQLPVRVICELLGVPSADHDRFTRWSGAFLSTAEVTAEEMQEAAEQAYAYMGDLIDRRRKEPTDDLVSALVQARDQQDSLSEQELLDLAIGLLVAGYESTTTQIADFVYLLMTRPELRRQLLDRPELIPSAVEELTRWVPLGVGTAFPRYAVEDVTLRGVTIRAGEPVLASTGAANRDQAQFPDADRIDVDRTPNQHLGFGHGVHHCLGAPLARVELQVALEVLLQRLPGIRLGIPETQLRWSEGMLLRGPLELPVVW
# T2: MycCI (Micromonospora griseorubida, UniProt Q83WF5)
# T2 sequence (Q83WF5 1-388): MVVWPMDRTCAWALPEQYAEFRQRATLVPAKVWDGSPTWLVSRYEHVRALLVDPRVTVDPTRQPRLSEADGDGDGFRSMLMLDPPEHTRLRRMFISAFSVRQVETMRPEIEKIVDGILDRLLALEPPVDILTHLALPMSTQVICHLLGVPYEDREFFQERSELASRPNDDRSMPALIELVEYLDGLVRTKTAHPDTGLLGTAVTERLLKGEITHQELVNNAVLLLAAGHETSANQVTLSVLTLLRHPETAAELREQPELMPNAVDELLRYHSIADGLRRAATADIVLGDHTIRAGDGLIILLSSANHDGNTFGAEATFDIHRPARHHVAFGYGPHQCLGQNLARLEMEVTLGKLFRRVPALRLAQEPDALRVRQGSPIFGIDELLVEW
# T3: MycCI cytochrome P450, C-terminal 6 x His tagged (Micromonospora griseorubida, UniProt Q83WF5 1-388)
# T3 sequence (looked up): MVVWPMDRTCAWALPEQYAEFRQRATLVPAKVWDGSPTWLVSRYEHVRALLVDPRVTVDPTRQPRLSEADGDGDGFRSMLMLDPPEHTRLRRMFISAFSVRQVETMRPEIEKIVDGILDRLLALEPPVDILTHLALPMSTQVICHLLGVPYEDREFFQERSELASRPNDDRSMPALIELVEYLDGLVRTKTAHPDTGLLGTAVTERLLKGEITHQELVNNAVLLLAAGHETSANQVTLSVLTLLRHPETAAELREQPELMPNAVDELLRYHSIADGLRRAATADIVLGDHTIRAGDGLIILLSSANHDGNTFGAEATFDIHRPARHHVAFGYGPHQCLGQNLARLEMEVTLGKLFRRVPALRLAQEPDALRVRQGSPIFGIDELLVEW
# Assays:
# MycG [1] = biological target: T1, MycG; test: spectral substrate binding assay
# MycG [2] = biological target: T1, MycG; test: spectral substrate binding assay; remark: listed apart in the source
# MycCI = biological target: T2, MycCI; test: spectral substrate binding assay
# [3] = biological target: MycCI cytochrome P450, C-terminal 6 x His tagged (Micromonospora griseorubida) (UniProt Q83WF5); test: spectral ferredoxin titration
# [4] = biological target: T3, MycCI cytochrome P450, C-terminal 6 x …; test: spectral ferredoxin titration
molecule,measurement,setting,value
"CC[C@H]1OC(=O)/C=C/[C@H](C)[C@@H](O[C@@H]2O[C@H](C)C[C@H](N(C)C)[C@H]2O)[C@@H](C)C[C@@H](C)C(=O)/C=C/[C@H]2O[C@@H]2[C@]1(O)CO[C@@H]1O[C@H](C)[C@@H](O)[C@@H](OC)[C@H]1OC [M-II, mycinamicin II]",Kd,MycG [1],71.5 ± 8.4 µM
"CC[C@H]1OC(=O)/C=C/[C@H](C)[C@@H](O[C@@H]2O[C@H](C)C[C@H](N(C)C)[C@H]2O)[C@@H](C)C[C@@H](C)C(=O)/C=C/C=C/[C@@H]1CO[C@@H]1O[C@H](C)[C@@H](O)[C@@H](OC)[C@H]1OC [M-IV, mycinamicin IV]",Kd,MycG [1],0.7 ± 0.1 µM
"CC[C@H]1OC(=O)/C=C/[C@H](C)[C@@H](O[C@@H]2O[C@H](C)C[C@H](N(C)C)[C@H]2O)[C@@H](C)C[C@@H](C)C(=O)/C=C/C=C/[C@]1(O)CO[C@@H]1O[C@H](C)[C@@H](O)[C@@H](OC)[C@H]1OC [M-V, mycinamicin V]",Kd,MycG [2],10.4 ± 0.2 µM
"CC[C@H]1OC(=O)/C=C/[C@@H](C)[C@H](O[C@H]2O[C@@H](C)C[C@@H](N(C)C)[C@@H]2O)[C@H](C)C[C@@H](C)C(=O)/C=C\C=C\[C@H]1C [M-VIII, mycinamicin VIII]",Kd,MycCI,28.1 ± 3.2 µM
spinach ferredoxin (from UniProt P00221 51-147) (natural protein),Kd,[3],149 µM
"N-terminal 6 x His-tagged ferredoxin MycCII (natural protein, Micromonospora griseorubida, UniProt Q83WF4 1-74, looked up) MRIVLDAERCVGAGQCEATAPELFTQGDDGLGLVRDRPVTPELLGPAREAVDRCPVRAIRIESSVRTGWARGAG",Kd,[4],7 ± 0.1 µM
